SMILES strings stand for the structures.

A word on the melting point: it is the temperature, or range, at which the solid turns liquid. With `CC(=O)c1c(O)ccc(C=NNc2ccc(C3=NNC(=O)CC3C)cc2)c1O` (centres unmarked) [Example 39, 6-{4-[N′-(3-Acetyl-2,4-dihydroxy-benzylidene)-hydrazino]-phenyl}-5-methyl-4,5-dihydro-2H-pyridazin-3-one], the melting point lay within 268 to 270 °C. The value for `COc1cccc(C=NNc2ccc(C3=NNC(=O)CC3C)cc2)c1O` (centres unmarked) [Example 57, 6-{4-[N′-(2-Hydroxy-3-methoxy-benzylidene)-hydrazino]-phenyl}-5-methyl-4,5-dihydro-2H-pyridazin-3-one] was 210 to 213 °C; that for `CC1CC(=O)NN=C1c1ccc(NN=Cc2cccc(O)c2O)cc1` (centres unmarked) [Example 7, 6-{4-[N′-(2,3-Dihydroxy-benzylidene)-hydrazino]-phenyl}-5-methyl-4,5-dihydro-2H-pyridazin-3-one] was 245 to 247 °C. Compound `O=c1[nH]nc(-c2ccc(NN=Cc3ccc(O)cc3O)cc2)c2ccccc12` [Example 18, 4-{4-[N′-(2,4-Dihydroxy-benzylidene)-hydrazino]-phenyl}-2H-phthalazin-1-one] showed a melting point of 278 to 283 °C. For `CCc1c(O)ccc(C=NNc2ccc(-c3ccc(=O)n(C)n3)cc2)c1O` [Example 28, 6-{4-[N′-(2,4-Dihydroxy-3-ethylbenzylidene)hydrazino]phenyl}-2-methyl-2H-pyridazin-3-one], the melting point is 262 to 266 °C. `CC1CC(=O)NN=C1c1ccc(NN=Cc2cc(O)ccc2O)cc1` (centres unmarked) [Example 8, 6-{4-[N′-(2,5-Dihydroxy-benzylidene)-hydrazino]-phenyl}-5-methyl-4,5-dihydro-2H-pyridazin-3-one] yielded a melting point of 317 to 320 °C.

In turn, `CC1CC(=O)NN=C1c1ccc(NN=Cc2ccc(O)c(O)c2[N+](=O)[O-])cc1` (centres unmarked) [Example 9, 6-{4-[N′-(3,4-Dihydroxy-2-nitro-benzylidene)-hydrazino]-phenyl}-5-methyl-4,5-dihydro-2H-pyridazin-3-one] gave a melting point of 239 to 241 °C.

In turn, `CC1CC(=O)NN=C1c1ccc(NN=Cc2cc([N+](=O)[O-])ccc2O)cc1` (centres unmarked) [Example 5, 6-{4-[N′-(2-Hydroxy-5-nitro-benzylidene)-hydrazino]-phenyl}-5-methyl-4,5-dihydro-2H-pyridazin-3-one] had a melting point of 299 to 300 °C. In turn, `CC1CC(=O)NN=C1c1ccc(NN=Cc2ccccc2C(F)(F)F)cc1` (centres unmarked) [Example 11, 6-{4-[N′-(2-trifluoromethyl-benzylidene)-hydrazino]-phenyl}-5-methyl-4,5-dihydro-2H-pyridazin-3-one] yielded a melting point of 113 to 115 °C.

In turn, `CC1CC(=O)NN=C1c1ccc(NN=C(CCC(=O)O)c2ccc(O)cc2O)cc1` (centres unmarked) [Example 64, 4-(2,4-Dihydroxy-phenyl)-4-{[4-(4-methyl-6-oxo-1,4,5,6-tetrahydro-pyridazin-3-yl)-phenyl]-hydrazono}-butyric acid] displayed a melting point of 299 to 302 °C. Take `CCC1CC(=O)NN=C1c1ccc(NN=Cc2ccc(O)cc2O)cc1` (centres unmarked) [Example 36, 6-{4-[N′-(2,4-Dihydroxy-benzylidene)-hydrazino]-phenyl}-5-ethyl-4,5-dihydro-2H-pyridazin-3-one]: the melting point lay in the range of 270 to 275 °C. To `Cn1nc(-c2ccc(NN=C(CCC(=O)O)c3ccc(O)cc3O)cc2)ccc1=O` [Example 29, 4-(2,4-Dihydroxyphenyl)-4-{[4-(1-methyl-6-oxo-1,6-dihydropyridazin-3-yl)phenyl]hydrazono}butyric acid] belongs 138 to 141 °C; to `CC1CC(=O)NN=C1c1ccc(NN=Cc2ccc(O)cc2)cc1` (centres unmarked) [Example 61, 6-{4-[N′-(4-Hydroxy-benzylidene)-hydrazino]-phenyl}-5-methyl-4,5-dihydro-2H-pyridazin-3-one], 258 to 261 °C. Consider `O=c1[nH]nc(-c2ccc(NN=C(c3ccccc3)c3ccc(O)cc3O)cc2)c2ccccc12` [Example 15, 4-(4-{N′-[(2,4-Dihydroxy-phenyl)-phenyl-methylene]-hydrazino}-phenyl)-2H-phthalazin-1-one], for which the melting point lay within 160 to 170 °C.

Compound `CC1CC(=O)NN=C1c1ccc(NN=Cc2ccccc2O)cc1` (centres unmarked) [Example 54, 6-{4-[N′-(2-Hydroxy-benzylidene)-hydrazino]-phenyl}-5-methyl-4,5-dihydro-2H-pyridazin-3-one] gave a melting point of 265 to 268 °C.

`CC1CC(=O)NN=C1c1ccc(C(=NN)c2ccc(O)c(C(=O)O)c2O)cc1` (centres unmarked) [Example 56, 2,6-Dihydroxy-3-{[4-(4-methyl-6-oxo-1,4,5,6-tetrahydro-pyridazin-3-yl)-phenyl]-hydrazonomethyl}-benzoic acid] returned a melting point of 215 to 218 °C. As to `COc1ccc(CCC(=NNc2ccc(C3=NNC(=O)CC3C)cc2)c2ccc(O)cc2O)cc1OC` (centres unmarked) [Example 14, 6-(4-{N′-[1-(2,4-Dihydroxy-phenyl)-3-(3,4-dimethoxy-phenyl)-propylidene]-hydrazino}-phenyl)-5-methyl-4,5-dihydro-2H-pyridazin-3-one], the melting point is 135 to 140 °C. Compound `COc1ccc(C=NNc2ccc(C3=NNC(=O)CC3C)cc2)cc1` (centres unmarked) [Example 55, 6-{4-[N′-(4-Methoxy-benzylidene)-hydrazino]-phenyl}-5-methyl-4,5-dihydro-2H-pyridazin-3-one] yielded a melting point of 172 to 174 °C.

With `CC1CC(=O)NN=C1c1ccc(NN=Cc2ccc([N+](=O)[O-])cc2)cc1` (centres unmarked) [Example 52, 6-{4-[N′-(4-nitrobenzylidene)-hydrazino]-phenyl}-5-methyl-4,5-dihydro-2H-pyridazin-3-one], the melting point fell in the range of 216 to 217 °C. Compound `CC1CC(=O)NN=C1c1ccc(NN=Cc2cccc(O)c2)cc1` (centres unmarked) [Example 62, 6-{4-[N′-(3-Hydroxy-benzylidene)-hydrazino]-phenyl}-5-methyl-4,5-dihydro-2H-pyridazin-3-one] had a melting point of 267 to 270 °C. On to `CC1CC(=O)NN=C1c1ccc(C(=NN)c2cccc(C#N)c2)cc1` (centres unmarked) [Example 20, 3-{[4-(4-Methyl-6-oxo-1,4,5,6-tetrahydropyridazin-3-yl)phenyl]-hydrazonomethyl}-benzonitrile], for which the melting point lay in the range of 220 to 224 °C. For `CCC(=NNc1ccc(-c2ccc(=O)n(C)n2)cc1)c1ccc(O)cc1O` [Example 27, 6-{4-{N′-[1-(2,4-Dihydroxyphenyl)propylidene]hydrazino}phenyl}-2-methyl-2H-pyridazin-3-one], the melting point was in the range of 225 to 233 °C. The value for `O=c1[nH]nc(-c2ccc(NN=C(c3ccc(O)cc3)c3ccc(O)cc3O)cc2)c2ccccc12` [Example 16, 4-(4-{N′-[(2,4-Dihydroxy-phenyl)-(4-hydroxy-phenyl)-methylene]-hydrazino}-phenyl)-2H-phthalazin-1-one] was 150 to 160 °C. For the compound `CC1CC(=O)NN=C1c1ccc(NN=Cc2ccc(S(C)(=O)=O)cc2)cc1` (centres unmarked) [Example 19, 6-{4-[N′-(4-Methanesulfonylbenzylidene)hydrazino]phenyl}-5-methyl-4,5-dihydro-2H-pyridazin-3-one], the melting point lay in the range of 130 to 137 °C. `COc1c(OC(C)=O)ccc(C(=NN)c2ccc(C3=NNC(=O)CC3C)cc2)c1[N+](=O)[O-]` (centres unmarked) [Example 12, Acetic acid 2-Methoxy-4-{[4-(4-methyl-6-oxo-1,4,5,6-tetrahydro-pyridazin-3-yl)-phenyl]-hydrazonomethyl}-3-nitro-phenyl ester]: the melting point lay within 220 to 223 °C. Regarding `CC1CC(=O)NN=C1c1ccc(NN=Cc2ccccc2[N+](=O)[O-])cc1` (centres unmarked) [Example 58, 6-{4-[N′-(2-nitro-benzylidene)-hydrazino]-phenyl}-5-methyl-4,5-dihydro-2H-pyridazin-3-one], the melting point fell in the range of 250 to 253 °C. `CC1CC(=O)NN=C1c1ccc(NN=Cc2ccc(O)c([N+](=O)[O-])c2)cc1` (centres unmarked) [Example 63, 6-{4-[N′-(4-Hydroxy-3-nitro-benzylidene)-hydrazino]-phenyl}-5-methyl-4,5-dihydro-2H-pyridazin-3-one] showed a melting point of 230 to 233 °C. For the compound `CC(=NNc1ccc(C2=NNC(=O)CC2C)cc1)c1cc(O)cc(O)c1` (centres unmarked) [Example 13, 6-(4-{N′-[1-(3,5-Dihydroxy-phenyl)-ethylidene]-hydrazino}-phenyl)-5-methyl-4,5-dihydro-2H-pyridazin-3-one], the melting point is 162 to 166 °C. In turn, `CCOC(=O)c1c(O)ccc(C(=NN)c2ccc(C3=NNC(=O)CC3C)cc2)c1O` (centres unmarked) [Example 3, 2,6-Dihydroxy-3-{[4-(4-methyl-6-oxo-1,4,5,6-tetrahydro-pyridazin-3-yl)-phenyl]-hydrazonomethyl}-benzoic acid Ethyl Ester] gave a melting point of 203 to 208 °C. `CC1CC(=O)NN=C1c1ccc(C(=NN)c2ccc(C#N)cc2)cc1` (centres unmarked) [Example 60, 4-{[4-(4-Methyl-6-oxo-1,4,5,6-tetrahydro-pyridazin-3-yl)-phenyl]-hydrazonomethyl}-benzonitrile] yielded a melting point of 246 to 248 °C. Take `CC1CC(=O)NN=C1c1ccc(NN=Cc2ccc(Cl)cc2Cl)cc1` (centres unmarked) [Example 42, 6-{4-[N′-(2,4-Dichloro-benzylidene)-hydrazino]-phenyl}-5-methyl-4,5-dihydro-2H-pyridazin-3-one]: the melting point was in the range of 252 to 254 °C. For the compound `COc1ccccc1C=NNc1ccc(C2=NNC(=O)CC2C)cc1` (centres unmarked) [Example 53, 6-{4-[N′-(2-Methoxy-benzylidene)-hydrazino]-phenyl}-5-methyl-4,5-dihydro-2H-pyridazin-3-one], the melting point lay in the range of 180 to 183 °C.

For the compound `Cn1nc(-c2ccc(NN=Cc3ccc(O)cc3O)cc2)ccc1=O` [Example 25, 6-{4-[N′-(2,4-Dihydroxybenzylidene)hydrazino]phenyl}-2-methyl-2H-pyridazin-3-one], the melting point fell in the range of 304 to 306 °C. `CCCCc1c(O)ccc(C=NNc2ccc(C3=NNC(=O)CC3C)cc2)c1O` (centres unmarked) [Example 44, 6-{4-[N′-(3-Butyl-2,4-dihydroxy-benzylidene)-hydrazino]-phenyl}-5-methyl-4,5-dihydro-2H-pyridazin-3-one] displayed a melting point of 218 °C.

On to `COc1c(O)ccc(C(C)=NNc2ccc(C3=NNC(=O)CC3C)cc2)c1[N+](=O)[O-]` (centres unmarked) [Example 67, 6-(4-{N′-[1-(4-Hydroxy-3-methoxy-2-nitro-phenyl)-ethylidene]-hydrazino}-phenyl)-5-methyl-4,5-dihydro-2H-pyridazin-3-one], for which the melting point is 251 to 254 °C.

(Values after patent US6699868B2, “Pyridazinyl phenyl hydrazones useful against congestive heart failure” (Orion Corporation, priority 2000, dated 2004).)
